In ChEMBL document CHEMBL4418480, “Methods and compositions for modulating rho-mediated gene transcription” (2012) one finds inhibition, IC50 and Activity data, which are given here for eleven compounds.

The source made the active and inactive calls. The rule behind the calls is not given here.

Series [1] is described as follows: Inhibition of nonspecific gene transcription in human PC3 cells transfected with Galpha12QL activator at 100 uM incubated for 19 hrs by PRL-TK luciferase based dual luciferase reporter gene assay. Format: cell-based, PC-3. On the technique in general: In a reporter assay the amount or activity of a reporter protein is the signal.
Series [2] is filed under the species Homo sapiens. As to the kind of experiment: Inhibition of rho-mediated gene transcription in human PC3 cells transfected with Galpha12QL activator at 100 uM incubated for 19 hrs by SRE.L-firefly luciferase based dual luciferase reporter gene assay relative to control. Format: cell-based.
Series [3] can be described thus: Inhibition of nonspecific gene transcription in human PC3 cells transfected with Galpha12QL activator at 10 uM incubated for 19 hrs by PRL-TK luciferase based dual luciferase reporter gene assay. Format: cell-based, PC-3.
The subject of series [4] is PC-3. The series is described as follows: Cytotoxicity against human PC3 cells assessed as inhibition of cell cell viability at 10 uM incubated for 19 hrs by WST1 based assay relative to control. The format is functional. As to conditions: for inhibition at 10 µM: PC-3, 19 h. (In general: Tetrazolium dyes change colour on reduction, which living cells bring about.)
The nature of series [5]: Inhibition of rho-mediated gene transcription in human PC3 cells transfected with Galpha12QL activator incubated for 19 hrs by SRE.L-firefly luciferase based dual luciferase reporter gene assay. Format: cell-based. The following applies: PC-3, 19 h.
Series [6] is filed under the species Homo sapiens. The series is described as follows: Inhibition of rho-mediated gene transcription in human PC3 cells transfected with Galpha12QL activator at 10 uM incubated for 19 hrs by SRE.L-firefly luciferase based dual luciferase reporter gene assay relative to control. The format is cell-based.
Series [7] has as its system PC-3. As to the kind of experiment: Cytotoxicity against human PC3 cells assessed as inhibition of cell cell viability at 100 uM incubated for 19 hrs by WST1 based assay relative to control. The following applies: for inhibition at 100 µM: PC-3, 19 h. Format: functional.
Series [8] has as its system SK-OV-3. As to the kind of experiment: Antiinvasive activity against human SKOV3 cells assessed as inhibition of LPA-stimulated cell invasion at 100 ng/ml by matrigel based assay. Format: functional.
The subject of series [9] is PC-3. As to the kind of experiment: Antiinvasive activity against human PC3 cells assessed as inhibition of LPA-stimulated cell invasion at 3 umol/L by matrigel based assay. Format: functional.
Series [10] concerns SK-MEL-28. The series is described as follows: Antiproliferative activity against human SK-MEL-28 cells assessed as inhibition of LPA-stimulated cell proliferation at 0.3 mmol/L and measured on day 8 by WST1 based assay. Format: functional.
Series [11] concerns PC-3. The series is described as follows: Antiproliferative activity against human PC3 cells assessed as inhibition of LPA-stimulated cell proliferation incubated for 27 hrs by BrdUrd incorporation assay. The format is functional, cell-based.
The species entered for series [12] is Homo sapiens. The series is described as follows: Antiproliferative activity against human A375M2 cells assessed as inhibition of LPA-stimulated cell proliferation at 0.3 mmol/L and measured on day 8 by WST1 based assay. The format is functional.
The subject of series [13] is WI-38. The series is described as follows: Antiproliferative activity against human WI38 cells assessed as inhibition of LPA-stimulated cell proliferation at 0.3 mmol/L and measured on day 8 by WST1 based assay. As to conditions: wi-38, 300 µM.
For series [14], the system named is SK-MEL-147. As to the kind of experiment: Antiproliferative activity against human SK-MEL-147 cells assessed as inhibition of LPA-stimulated cell proliferation at 0.3 mmol/L and measured on day 8 by WST1 based assay. Format: functional.
In series [15] the test system is A-375. As to the kind of experiment: Antiproliferative activity against human A375 cells assessed as inhibition of LPA-stimulated cell proliferation at 0.3 mmol/L and measured on day 8 by WST1 based assay. Format: functional.

Usually inhibition stands for the relative decrease from the control value, in per cent. Broadly, the IC50 is the concentration at which inhibition is half-maximal. High values mean weaker potency, low ones greater potency. The compound `O=C(CCCCNC(=O)c1cc(C(F)(F)F)cc(C(F)(F)F)c1)Nc1ccc(Cl)cc1` yielded an inhibition at 19 h, 100 µM in series [1] of 10%. In addition, the inhibition in [2] came out at 12%; in [6], 0%. For the same compound, the inhibition at 19 h, 10 µM in [3] worked out at 0%. In series [4], the inhibition at 10 µM amounted to 0%. Moreover, the IC50 in series [5] was more than 100 µM. For the same compound, the inhibition at 100 µM in series [7] was 0%.

The compound `O=C(CONC(=O)c1ccc(C(F)(F)F)cc1)Nc1ccc(Cl)cc1` gave an inhibition at 19 h, 100 µM in series [1] of 0%. Besides, the inhibition in series [2] worked out at 91%; in series [6] it was 26%. This compound also came in with an inhibition at 19 h, 10 µM in series [3] of 6%. The compound also came in with an IC50 in series [5] of 29 µM.

Regarding `CC(=O)O[C@H]1C(=O)[C@@]2(C)[C@H]([C@H](OC(=O)c3ccccc3)[C@]3(O)C[C@H](OC(=O)[C@H](O)[C@@H](NC(=O)c4ccccc4)c4ccccc4)C(C)=C1C3(C)C)[C@]1(OC(C)=O)CO[C@@H]1C[C@@H]2O`, the inhibition entry in series [8] was “Active”.

`O=C(CCNC(=O)c1cc(C(F)(F)F)cc(C(F)(F)F)c1)Nc1ccc(Cl)cc1` showed an inhibition at 19 h, 100 µM in [1] of 15 to 22%. Besides, the inhibition was 64 to 66% in series [2] and 38 to 44% in series [6]. The compound also returned an IC50 in series [5] of 25 to 38 µM. Besides, the inhibition at 100 µM in series [7] lay within 6 to 10%.

For the compound `O=C(CONC(=O)c1cccc(C(F)(F)F)c1)Nc1ccc(Cl)cc1`, in [1], the inhibition at 19 h, 100 µM is 19%. Besides, the inhibition in [2] came out at 86%; in [6], 25%. This compound returned an inhibition at 19 h, 10 µM in [3] of 5%. Also, it took 27 µM to reach half-maximal inhibition in series [5] (IC50).

In the case of `O=C(CONC(=O)c1ccccc1)Nc1ccc(Cl)cc1`, the inhibition entry in [2], in series [4], in series [6] and in [7] was “inactive” each time. In series [5], this compound came in with an IC50 of more than 100 µM.

For the compound `CC(ONC(=O)c1cc(C(F)(F)F)cc(C(F)(F)F)c1)C(=O)Nc1ccc(Cl)cc1` (configuration not stated), the inhibition entry in series [9], in series [10], in [11], in series [12], in series [14] and in series [15] was “Active” each time. In series [3], this compound displayed an inhibition at 19 h, 10 µM of 48%. Further, the inhibition at 10 µM in series [4] worked out at 44%. Also, in series [6], the inhibition was 74%. Besides, the Activity entry in series [13] was “Non-Toxic”.

In series [3], `O=C(CC1CCCCN1C(=O)c1cc(C(F)(F)F)cc(C(F)(F)F)c1)Nc1ccc(Cl)cc1` (configuration not stated) returned an inhibition at 19 h, 10 µM of 0%.

For the compound `O=C(Nc1ccccc1C(=O)Nc1ccc(Cl)cc1)c1cc(C(F)(F)F)cc(C(F)(F)F)c1`, in series [3], the inhibition at 19 h, 10 µM came to 0%.

Regarding `CN(CCNC(=O)c1cc(C(F)(F)F)cc(C(F)(F)F)c1)C(=O)c1ccc(Cl)cc1`, in [1], the inhibition at 19 h, 100 µM amounted to 10%. For the same compound, the inhibition in series [2] amounted to 25%; in series [6], 20%. In series [3], this compound returned an inhibition at 19 h, 10 µM of 0%. The inhibition at 10 µM in [4] was found to be 0%. This compound came in with an IC50 in series [5] of more than 1000 µM. For the same compound, the inhibition at 100 µM in series [7] was 0%.

Regarding `O=C(CONC(=O)c1cc(C(F)(F)F)cc(C(F)(F)F)c1)Nc1ccccc1`, in series [1], the inhibition at 19 h, 100 µM came out at 59%. Further, the results for the inhibition in series [2] and in series [6] were 65% and 13%, respectively. Moreover, in series [3], the inhibition at 19 h, 10 µM was 33%. This compound also showed an IC50 in [5] of 36 µM.
